Patent EP1184030A1, “Antibacterial composition comprising trimethylnorbornanylcyclohexanol derivatives” (Givaudan SA, priority 2000, dated 2002)
Values after ≈ are worked out from the molar mass of the structure shown. Where two headings read alike, the source gives them in different places. Values belong to the compound of their own block, whether it stands above or below them.

Tests used:
[1] = test system: Staphylococcus epidermidis Ax25; assay: MIC microtiter plate test, axilla bacteria; type: cell-based; settings: for MIC: Staphylococcus epidermidis, AX25
Source text: (§1) The different bacterial strains had been isolated from the human axilla by current microbiological practice. They were taxonomically identified by cell morphology, gram-reaction and biochemical tests included in the Api coryne test kit (BioMerieux, France). Strain Staphylococcus epidermidis Ax25 was identified by fatty acid methyl ester analysis (FAME; German type strain collection DSMZ, Germany). The strains were maintained on Tryptic soy broth plates, this standard medium being amended with 5 g per Litre of Tween 80 and 1 g of Soybean lecithin. Plates were incubated at 36° C for a period 48 hours. The bacteria were then swabbed from the plates and suspended in 4 ml of Müller-Hinton broth amended with 100 mg of Tween80 per Litre (MH-Tween) and incubated again at 36° C for 16 hours. Following incubation the bacterial suspensions were diluted in MH-Tween to obtain a final cell density of 10^6 colony forming units per ml. For each fragrance material four microtiter plates were used in the example, each microtiter plate having 8 rows, A-H, and 12 columns, 1-12. To each column a diluted suspension of a different test organism was distributed, 100 µl per well. 1% stock solutions of the fragrance materials were then prepared in MH-Tween broth. The fragrance material was dispersed by ultrasonication into the aqueous medium to obtain a homogenous emulsion. 100 µl per well of this emulsion was then added to the first row of the microtiter plates already containing the target organisms. Serial dilution series were then prepared starting at row A and continuing until row G, each time removing 100 µl from a well and transferring it to the next well. In this way fragrance concentrations of 0.5%, 0.25%, 0.125%, 0.0625%, 0.03125%, 0.0156% and 0.0078% were tested for their antibacterial efficacy. The reference compound Triclosan was tested at 16 fold lower concentrations. The plates were covered with plastic films and incubated for 24 h at 36° C with shaking at 250 rpm. The turbidity developing in the microtiter plates was then examined after 24 h to determine microbial growth. The minimal concentration of fragrance inhibiting the growth of an organism by at least 80% was determined as the minimal inhibitory concentration (MIC).
(§2) Ax 25 was identified as Staphylococcus epidermidis by FAME analysis. Identification with the Api Coryne test kit yielded the following species assignments for the remainder of the strains: Ax 26 Corynebacterium sp.; Ax 3 Corynebacterium bovis; Ax 7 Corynebacterium group G; Ax 10 Corynebacterium jeikeium; Ax 11 Corynebacterium jeikeium; Ax 12 Corynebacterium jeikeium; Ax 15 Corynebacterium jeikeium; Ax 20 Corynebacterium striatum/amycolatum; Ax 19 Corynebacterium jeikeium. The strains were isolated from the axilla of 8 human volunteers. Based on biochemical tests and colony morphology all strains were distinct from each other, even the several strains all belonging to Corynebacterium jeikeium.

[2] = test system: Ax 15 Corynebacterium jeikeium; assay: MIC microtiter plate test, axilla bacteria; type: cell-based; settings: for MIC: Corynebacterium jeikeium
Source text: as §1, §2

[3] = test system: Ax 7 Corynebacterium group G; assay: MIC microtiter plate test, axilla bacteria; type: cell-based; settings: for MIC: Corynebacterium
Source text: as §1, §2

Vapour pressure = type: physicochemical
Source text: Odoriferous substances are by definition volatile compounds which evaporate from the skin and therefore loose their deodorising effect. Furthermore small water-soluble fragrance compounds can get dissolved in sweat and are thus rapidly diluted under conditions of high sweat secretion which further reduces the duration of the deodorising effect. Therefore a low water solubility indicated by a high LogP value and a low volatility indicated by low vapour pressure are desired for odoriferous substances which are used for their antibacterial activity.

Corynebacteria = assay: MIC microtiter plate test, Corynebacteria; type: cell-based
Source text: The different bacterial strains had been isolated from the human axilla by current microbiological practice. They were taxonomically identified by cell morphology, gram-reaction and biochemical tests included in the Api coryne test kit (BioMerieux, France). Strain Staphylococcus epidermidis Ax25 was identified by fatty acid methyl ester analysis (FAME; German type strain collection DSMZ, Germany). The strains were maintained on Tryptic soy broth plates, this standard medium being amended with 5 g per Litre of Tween 80 and 1 g of Soybean lecithin. Plates were incubated at 36° C for a period 48 hours. The bacteria were then swabbed from the plates and suspended in 4 ml of Müller-Hinton broth amended with 100 mg of Tween80 per Litre (MH-Tween) and incubated again at 36° C for 16 hours. Following incubation the bacterial suspensions were diluted in MH-Tween to obtain a final cell density of 10^6 colony forming units per ml. For each fragrance material four microtiter plates were used in the example, each microtiter plate having 8 rows, A-H, and 12 columns, 1-12. […]
Since sandela is known to be a mixture of different reaction products, commercial sandela was subjected to a distillation process. […] The different fractions were evaluated for their antimicrobial activity (Table 6) with the method described in example 1. […]

[4] = test system: Ax 10 Corynebacterium jeikeium; assay: MIC microtiter plate test, axilla bacteria; type: cell-based; settings: Ax10, growth inhibition by at least 80%, 24 h at 36° C
Source text: as §1, §2

[5] = test system: Ax 11 Corynebacterium jeikeium; assay: MIC microtiter plate test, axilla bacteria; type: cell-based; settings: Ax11, growth inhibition by at least 80%, 24 h at 36° C
Source text: as §1, §2

[6] = test system: Ax 20 Corynebacterium striatum/amycolatum; assay: MIC microtiter plate test, axilla bacteria; type: cell-based; settings: Ax20, growth inhibition by at least 80%, 24 h at 36° C
Source text: as §1, §2

[7] = test system: Ax 3 Corynebacterium bovis; assay: MIC microtiter plate test, axilla bacteria; type: cell-based; settings: Ax3, growth inhibition by at least 80%, 24 h at 36° C
Source text: as §1, §2

[8] = test system: Ax 12 Corynebacterium jeikeium; assay: MIC microtiter plate test, axilla bacteria; type: cell-based; settings: Ax12, growth inhibition by at least 80%, 24 h at 36° C
Source text: as §1, §2

[9] = test system: Ax 26 Corynebacterium sp.; assay: MIC microtiter plate test, axilla bacteria; type: cell-based; settings: for MIC: Corynebacterium
Source text: as §1, §2

[10] = Table 7, S. epidermidis, 24 hours
[11] = Table 8, S. epidermidis, 24 hours
[12] = Table 7, Corynebact. Ax15, 24 hours
[13] = Table 8, Corynebact. Ax15, 24 hours
[14] = Table 7, Corynebact. Ax7, 24 hours
[15] = Table 8, Corynebact. Ax7, 24 hours
[16] = Ax 25, growth inhibition by at least 80%, 24 h at 36° C
[17] = Ax15, growth inhibition by at least 80%, 24 h at 36° C
[18] = Ax7, growth inhibition by at least 80%, 24 h at 36° C
[19] = Corynebacterium jeikeium, read-out: Minimal inhibitory concentration (MIC)

vapour pressure (Vapour pressure): about 2.2 µg/L
SMILES: CC1C2CC(CC2C2CCCCC2O)C1(C)C (stereo not shown) [2-(5,5,6-trimethylbicyclo[2.2.1]hept-2-yl)-cyclohexanol]

vapour pressure (Vapour pressure): about 2.2 µg/L
SMILES: CC1C2CC(CC2C2CCC(O)CC2)C1(C)C (stereo not shown) [4-(5,5,6-trimethylbicyclo[2.2.1]hept-2-yl)-cyclohexanol]

Minimal inhibitory concentration (MIC) [4]: 0.2500 % weight/ volume
Minimal inhibitory concentration (MIC) [1, 16]: 0.1250 % weight/ volume
Minimal inhibitory concentration (MIC) [5]: 0.2500 % weight/ volume
Minimal inhibitory concentration (MIC) [6]: 0.1250 % weight/ volume
Minimal inhibitory concentration (MIC) [7]: 0.1250 % weight/ volume
Minimal inhibitory concentration (MIC) [2, 17]: 0.2500 % weight/ volume
Minimal inhibitory concentration (MIC) [3, 18]: 0.1250 % weight/ volume
Minimal inhibitory concentration (MIC) [8]: 0.2500 % weight/ volume
SMILES: CC1=CCC(/C=C\C(C)C(C)O)C1(C)C (stereo not shown) [Ebanol]

Minimal inhibitory concentration (MIC) [4]: 0.1250 % weight/ volume
Minimal inhibitory concentration (MIC) [1, 16]: 0.1250 % weight/ volume
Minimal inhibitory concentration (MIC) [5]: 0.1250 % weight/ volume
Minimal inhibitory concentration (MIC) [6]: 0.1250 % weight/ volume
Minimal inhibitory concentration (MIC) [7]: 0.1250 % weight/ volume
Minimal inhibitory concentration (MIC) [2, 17]: 0.2500 % weight/ volume
Minimal inhibitory concentration (MIC) [3, 18]: 0.1250 % weight/ volume
Minimal inhibitory concentration (MIC) [8]: 0.1250 % weight/ volume
SMILES: CC1=CCC(CCC(C)C(C)O)C1(C)C (stereo not shown) [Sandalore]

The next lines start with the compound.

SMILES: COC1CC(C2CC3CC2C(C)C3(C)C)CCC1O (single isomer, unassigned; peak a) [Peak A]
Bacteriostatic activity (concentration needed for at least 80% reduction in growth) [1, 10]: 0.0040 percent (w/v)
Bacteriostatic activity (concentration needed for at least 80% reduction in growth) [1, 11]: 0.0040 percent (w/v)
Bacteriostatic activity (concentration needed for at least 80% reduction in growth) [2, 12]: 0.0048 percent (w/v)
Bacteriostatic activity (concentration needed for at least 80% reduction in growth) [2, 13]: 0.0048 percent (w/v)
Bacteriostatic activity (concentration needed for at least 80% reduction in growth) [3, 14]: 0.0048 percent (w/v)
Bacteriostatic activity (concentration needed for at least 80% reduction in growth) [3, 15]: 0.0048 percent (w/v)

SMILES: COC1CC(C2CC3CC2C(C)C3(C)C)CCC1O (single isomer, unassigned; peak b) [Peak B]
Bacteriostatic activity (concentration needed for at least 80% reduction in growth) [1, 10]: 0.0023 percent (w/v)
Bacteriostatic activity (concentration needed for at least 80% reduction in growth) [1, 11]: 0.0023 percent (w/v)
Bacteriostatic activity (concentration needed for at least 80% reduction in growth) [2, 12]: 0.0028 percent (w/v)
Bacteriostatic activity (concentration needed for at least 80% reduction in growth) [2, 13]: 0.0028 percent (w/v)
Bacteriostatic activity (concentration needed for at least 80% reduction in growth) [3, 14]: 0.0028 percent (w/v)
Bacteriostatic activity (concentration needed for at least 80% reduction in growth) [3, 15]: 0.0028 percent (w/v)

SMILES: COC1CC(C2CC3CC2C(C)C3(C)C)CCC1O (stereo not shown) [2-methoxy-4-(5,5,6-trimethylbicyclo[2.2.1]hept-2-yl)cyclohexan-1-ol]
activity against Corynebacteria (Corynebacteria): highest activity

SMILES: COC1CCC(C2CC3CC2C(C)C3(C)C)CC1O (stereo not shown) [2-methoxy-5-(5,5,6-trimethyl-bicyclo[2.2.1]hept-2-yl)cyclohexan-1-ol]
activity against Corynebacteria (Corynebacteria): highest activity

SMILES: CC1C2CC(CC2C2CCCC(O)C2)C1(C)C (stereo not shown) [3-(5,5,6-trimethylbicyclo[2.2.1]hept-2-yl)-cyclohexanol]
vapour pressure (Vapour pressure): about 2.2 µg/L

SMILES: C=CCc1ccc(O)c(OC)c1 [Eugenol]
vapour pressure (Vapour pressure): 109 µg/L

SMILES: CC(C)=CCCC(C)=CCCC(C)=CCO [Farnesol, 3,7,11-trimethyl-2,6,10-dodecatrien-1-ol]
vapour pressure (Vapour pressure): 1.35 µg/L
MIC ([9]; Ax26, growth inhibition by at least 80%, 24 h at 36° C, read-out: Minimal inhibitory concentration (MIC)): 78 µg/mL (≈ 351 µM)
MIC ([9]; Table 7, Corynebact. Ax26, 24 hours, read-out: Bacteriostatic activity (concentration needed for at least 80% reduction in growth)): 78 µg/mL (≈ 351 µM)
Bacteriostatic activity (concentration needed for at least 80% reduction in growth) ([9]; Table 8, Corynebact. Ax26, 24 hours): 0.0078 percent (w/v)
MIC [4, 19]: 78 µg/mL (≈ 351 µM)
MIC ([1]; Ax 25, growth inhibition by at least 80%, 24 h at 36° C, read-out: Minimal inhibitory concentration (MIC)): 156 µg/mL (≈ 702 µM)
MIC ([1]; Table 7, S. epidermidis, 24 hours, read-out: Bacteriostatic activity (concentration needed for at least 80% reduction in growth)): 156 µg/mL (≈ 702 µM)
Bacteriostatic activity (concentration needed for at least 80% reduction in growth) [1, 11]: 0.0156 percent (w/v)
MIC [5, 19]: 195 µg/mL (≈ 877 µM)
MIC ([6]; Corynebacterium striatum, read-out: Minimal inhibitory concentration (MIC)): 137 µg/mL (≈ 616 µM)
MIC ([7]; Corynebacterium bovis, read-out: Minimal inhibitory concentration (MIC)): 156 µg/mL (≈ 702 µM)
MIC ([2]; Ax15, growth inhibition by at least 80%, 24 h at 36° C, read-out: Minimal inhibitory concentration (MIC)): 156 µg/mL (≈ 702 µM)
MIC ([2]; Table 7, Corynebact. Ax15, 24 hours, read-out: Bacteriostatic activity (concentration needed for at least 80% reduction in growth)): 156 µg/mL (≈ 702 µM)
Bacteriostatic activity (concentration needed for at least 80% reduction in growth) [2, 13]: 0.0156 percent (w/v)
MIC ([3]; Ax7, growth inhibition by at least 80%, 24 h at 36° C, read-out: Minimal inhibitory concentration (MIC)): 137 µg/mL (≈ 616 µM)
MIC ([3]; Table 7, Corynebact. Ax7, 24 hours, read-out: Bacteriostatic activity (concentration needed for at least 80% reduction in growth)): 137 µg/mL (≈ 616 µM)
Bacteriostatic activity (concentration needed for at least 80% reduction in growth) [3, 15]: 0.0137 percent (w/v)
MIC [8, 19]: 137 µg/mL (≈ 616 µM)

SMILES: CCC(=CCC1CC=C(C)C1(C)C)CO (stereo not shown) [Radjanol]
Minimal inhibitory concentration (MIC) [1, 16]: 0.1250 % weight/ volume
Minimal inhibitory concentration (MIC) [2, 17]: 0.125. % weight/ volume
Minimal inhibitory concentration (MIC) [3, 18]: 0.0625 % weight/ volume
